What was measured:
Format in all cases: binding
[1] = target: T1, panel of 442 kinases (Homo sapiens, UniProt O14936); conditions: Compound Concentration 10 µM
T1 construct: purchased KINOMEscan
T1 sequence (O14936 1-926): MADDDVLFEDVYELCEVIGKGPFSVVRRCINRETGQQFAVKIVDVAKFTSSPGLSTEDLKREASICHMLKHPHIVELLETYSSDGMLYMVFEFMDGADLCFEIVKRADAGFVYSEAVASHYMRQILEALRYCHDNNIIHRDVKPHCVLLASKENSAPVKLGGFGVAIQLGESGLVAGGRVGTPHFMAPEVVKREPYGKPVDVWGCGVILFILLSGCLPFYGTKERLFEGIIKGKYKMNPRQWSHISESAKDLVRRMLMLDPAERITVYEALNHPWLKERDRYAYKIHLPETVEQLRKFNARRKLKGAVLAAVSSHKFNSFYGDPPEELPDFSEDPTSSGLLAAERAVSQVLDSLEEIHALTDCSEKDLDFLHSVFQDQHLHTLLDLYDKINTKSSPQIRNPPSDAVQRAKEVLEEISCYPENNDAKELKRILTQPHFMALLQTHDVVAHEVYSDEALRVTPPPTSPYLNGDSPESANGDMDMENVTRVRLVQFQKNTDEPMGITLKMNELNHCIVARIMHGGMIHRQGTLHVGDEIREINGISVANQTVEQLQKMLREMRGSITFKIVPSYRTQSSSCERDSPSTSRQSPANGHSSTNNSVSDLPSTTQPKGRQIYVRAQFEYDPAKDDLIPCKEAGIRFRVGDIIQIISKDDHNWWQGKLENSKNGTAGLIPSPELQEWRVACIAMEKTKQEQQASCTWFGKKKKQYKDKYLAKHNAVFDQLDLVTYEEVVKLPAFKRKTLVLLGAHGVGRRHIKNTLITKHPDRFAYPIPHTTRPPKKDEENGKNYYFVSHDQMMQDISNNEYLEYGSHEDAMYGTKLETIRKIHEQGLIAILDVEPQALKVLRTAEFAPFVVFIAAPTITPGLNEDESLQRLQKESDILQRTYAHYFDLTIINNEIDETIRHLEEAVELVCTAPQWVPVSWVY
Description: (§1) We assessed the selectivity of members of this scaffold using the KINOMEscan methodology across a near comprehensive panel of 442 kinases [[18,27]].

[2] = target: T2, panel of 442 kinases (Homo sapiens, UniProt P31751); conditions: Compound Concentration 10 µM
T2 construct: purchased KINOMEscan
Description: as §1

[3] = tested on: panel of 442 kinases; conditions: for KINOMEscan: EGFR(L747-E749del, A750P) / KINOMEscan: EGFR(L747-S752del, P753S) / KINOMEscan: EGFR(L747-T751del,Sins) / KINOMEscan: FLT3(ITD): Compound Concentration 10 µM; for Number of score not higher than 10: of 442 total assayed kinases, % Ctrl ≤ 10; for Number of score not higher than 10 / S10: compound concentration 10 µM; for S10: selectivity score = (number of kinases with %Ctrl ≤ 10)/total number of kinases tested (442)
Description: as §1

T2 sequence (P31751 whole entry): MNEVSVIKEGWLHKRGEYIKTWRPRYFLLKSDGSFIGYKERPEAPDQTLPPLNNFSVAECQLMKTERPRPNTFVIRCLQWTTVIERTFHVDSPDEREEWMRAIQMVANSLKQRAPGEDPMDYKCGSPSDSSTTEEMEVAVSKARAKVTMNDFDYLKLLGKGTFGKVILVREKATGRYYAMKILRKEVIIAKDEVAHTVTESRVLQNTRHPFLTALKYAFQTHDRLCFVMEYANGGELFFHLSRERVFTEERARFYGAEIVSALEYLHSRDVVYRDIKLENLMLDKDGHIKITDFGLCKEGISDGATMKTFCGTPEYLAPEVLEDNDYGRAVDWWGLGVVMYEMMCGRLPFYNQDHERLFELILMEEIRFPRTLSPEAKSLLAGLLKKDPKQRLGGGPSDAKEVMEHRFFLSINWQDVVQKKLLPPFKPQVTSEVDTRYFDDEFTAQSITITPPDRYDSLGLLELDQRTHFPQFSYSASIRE

| Structure (SMILES) | KINOMEscan: CASK [1] | KINOMEscan: AKT2 [2] | KINOMEscan: EGFR(L747-E749del, A750P) [3] | KINOMEscan: EGFR(L747-S752del, P753S) [3] | KINOMEscan: EGFR(L747-T751del,Sins) [3] | KINOMEscan: FLT3(ITD) [3] | Number of score not higher than 10 [3] | S10 [3] | KINOMEscan selectivity score (S10) ([3]; screened at 10 μM, 442 kinases) |
| --- | --- | --- | --- | --- | --- | --- | --- | --- | --- |
| COc1cc(C(=O)N2CCC(N3CCN(C)CC3)CC2)ccc1Nc1ncc2c(n1)N(C)c1ccccc1C(=O)N2C [15 (LRRK2-IN-1)] | 85 | 100 | 78 | 84 | 100 | 100 | 16 | 0.036 |  |
| CCOc1cc(C(=O)N2CCC(N3CCN(C)CC3)CC2)ccc1Nc1ncc2c(n1)N(C1CCCC1)c1ccccc1C(=O)N2C [Compound 26] | 98 | 100 | 100 | 100 | 100 | 100 | 3 | 0.007 |  |
| COc1cc(C(=O)N2CCC(N3CCN(C)CC3)CC2)ccc1Nc1ncc2c(n1)N1CCc3cccc(c31)C(=O)N2C [Compound 24] | 100 |  |  |  |  |  |  |  |  |
| COc1cc(C(=O)N2CCC(N3CCN(C)CC3)CC2)ccc1Nc1ncc2c(n1)N(C1CCCC1)c1ccccc1C(=O)N2C [Compound 25, 11-cyclopentyl-2-((2-methoxy-4-(4-(4-methylpiperazin-1-yl)piperidine-1-carbonyl)phenyl)amino)-5-methyl-5H-benzo[e]pyrimido[5,4-b][1,4]diazepin-6(11H)-one] | 100 | 100 | 85 | 74 | 76 | 100 | 8 | 0.018 | 0.018 |

Source: article PMC3914206
